Data taken from patent US9863949B2, “Method for predicting and evaluating responsiveness to cancer treatment with DNA-damaging chemotherapeutic agents” (NEKTAR THERAPEUTICS, priority 2013, dated 2018).
Where two headings read alike, the source gives them in different places.

What was measured:
NCI-H460 cells = test: DNA damage pathway markers in NCI-H460 cells treated ex vivo, laser scanning cytometry; type: cell-based; conditions: NCI-H460, 0.01 μM drug
Method: The cell lines, H460, HCT116, and HL60 were used in the study. H460 (30,000 cells/well) and HCT116 (15,000 cells/well) were grown in three 48 well plates. HL60 suspension cells were grown in five 25 cm flasks (1×10^6 cells/flask). Cells were treated with the following two concentrations of gemcitabine and SN-38:
Cells treated with DMSO (final concentration 0.01%) were used as the control. Following 24 hours of drug treatment, cells were washed and fixed at 0 hour, 6 hour, and 24 hour timepoints. Cells were then stained for detection of the following markers: γ-H2AX, survivin, BRCA1, BRCA2, FAD51, and ATM. Expression levels for each biomarker were determined based upon mean fluorescence intensity (MFI) by laser scanning cytometry (iCys).

HL60 = test system: HL60
Method: (§1) Gemcitabine inhibits thymidylate synthetase, leading to inhibition of DNA synthesis and cell death. The cells were treated at concentrations of 0.01, 0.1, 1 and 10 μM in triplicate with appropriate controls.
(§2) A MTT cytotoxicity assay was performed. Optical density (OD) was determined for each sample, and IC50 values were determined (Graphpad Prism software using 4-parameter, non-linear curve fitting) for each drug relative to each cell line. The dose response of SN-38 and gemcitabine in the different cell lines was plotted.

NCI-H460 = test system: NCI-H460
Method: as §1, §2

HCT116 cells = test: Biomarker assay qualification, drug-treated HCT116 cells, MFI by iCys; type: cell-based, human; conditions: HCT116 treated with 10 μM SN-38 for 24 hours
Method: Primary and secondary antibodies were obtained from commercial sources. Control (0.1% DMSO) and drug-treated (SN-38, 10 uM) tumor cell lines and peripheral blood mononuclear cells (PBMCs) from healthy donors were used for biomarker qualification. The cell lines employed were as follows: HCT 116 (human colon carcinoma), MCF7 (human breast adenocarcinoma), A549 (human lung carcinoma), and SK-BR-3 (human breast adenocarcinoma, derived from metastatic site).
(§3) Colorectal HCT-116 tumor cell lines treated with drug (SN-38, 10 μM) or DMSO (0.1%) were used as positive and negative controls, respectively, for the assay development for topoisomerase I and γ-H2Ax. […] After incubation, cells were detached using 0.25% trypsin for 2-5 minutes, washed, counted, fixed with 2% PFA for 20 minutes, and cytospun onto glass slides.
as §3, with “controls” for “controls, respectively,”, “of RAD51.” for “for topoisomerase I and γ-H2Ax.”
For each marker, one to three different antibodies were tested. […] Cells were cover slipped and fluorescence intensity was quantified using iCys (CompuCyte, Westwood, Mass.). […]

[1] = 24 hr drug + 24 hr without drug

Method for metastatic breast cancer: Seventy patients were enrolled in the trial (n=35 per arm). […] Fifteen (21.4%) patients had received prior bevacizumab. Among five patients with HER2-positive disease, all had received prior trastuzumab; none had received prior lapatinib.
Patients were randomized 1:1 into two treatment arms, comparing the same dose with a different dosing frequency. 4-arm-PEG-gly-irino-20K was administered at 145 mg/m^2 every 14 days (q14d) or every 21 days (q21 d) as an intravenous infusion over 90 minutes on day 1. Patients received treatment until disease progression or unacceptable toxicity. The drug dosage was dose-reduced by 25 mg/m^2 for grade 3-4 hematologic toxicity, grade 3-4 diarrhea, and other grade 2-4 non-hematologic toxicities (other than alopecia, anorexia, asthenia, and untreated nausea/vomiting). Protocol retreatment criteria required that toxicities and hematologic parameters were resolved to the following grades or levels prior to administration of the next dose: diarrhea, fully resolved; other non-hematologic toxicities, grade 1; neutrophils≧1,500/mm^3; platelets≧100,000/mm^3; and hemoglobin≧9 g/dL.
Medical history was taken at screening and on day 1 of each cycle. Physical exam was performed and serum CA27.29, complete blood count with differential, and serum chemistry were analyzed at screening, on day 1 of each cycle, and at end of treatment. Coagulation parameters were analyzed at screening and on day 1 of each cycle. Radiologic exam (either computed tomography or magnetic resonance imaging, with the same method per lesion used throughout the study) occurred at screening (within 28 days of day one, cycle 1) and approximately every 6 weeks thereafter until progressive disease, start of new anticancer therapy, or end of study. Patients were contacted approximately every 3 months after the end-of-treatment visit to assess progression (in the absence of progression on study), survival, receipt of subsequent anti-cancer therapy, and resolution of toxicity.
Response was measured by RECIST version 1.0 (Therasse, P., et al., 2000, Journal of the National Cancer Institute, 92 (3), 205-216) and toxicities were graded according to the National Cancer Institute Common Terminology Criteria for Adverse Events (NCI-CTCAE) version 3.0.
The primary endpoint was ORR, with confirmation of all responses by a second imaging procedure at least 28 days from the initial observation of response. Secondary endpoints were PFS, overall survival (OS), 6-month and 1-year survival, and safety. Exploratory endpoints included change from baseline in CA27.29, UGT1A1 and ABCC2 polymorphism for correlation with select toxicities.
Three populations for analysis were defined: 1) intent-to-treat (ITT), 2) efficacy evaluable, and 3) safety. The ITT population was the primary population for all efficacy analyses and included all randomized patients. […] The safety population consisted of all patients who received at least one dose or partial dose of chemotherapeutic agent.
Summary statistics were used for continuous variables, frequency counts and percentages were used for categorical variables. Ninety-five percent confidence interval were calculated for ORR using the Exact method. Time-to-event variables were analyzed using the Kaplan-Meier method.

In the case of `CCc1c2c(nc3ccc(O)cc13)-c1cc3c(c(=O)n1C2)COC(=O)[C@]3(O)CC` [SN-38], the “ATM % change in MFI” value (NCI-H460 cells; 24 hr drug) is reported as 120%, the “ATM % change of positive cells” value (NCI-H460 cells; 24 hr drug) is reported as 13% and the “BRCA1 % change in MFI” value (NCI-H460 cells; 24 hr drug) is reported as −8%. For the same compound, the “BRCA1 % change of positive cells” value (NCI-H460 cells; 24 hr drug) was 143%, the “BRCA2 % change in MFI” value (NCI-H460 cells; 24 hr drug) was −20% and the “BRCA2 % change of positive cells” value (NCI-H460 cells; 24 hr drug) was 131%. For the same compound, the “RAD51 % change in MFI” value (NCI-H460 cells; 24 hr drug) was −8%, the “RAD51 % change of positive cells” value (NCI-H460 cells; 24 hr drug) was 180% and the “Survivin % change in MFI” value (NCI-H460 cells; 24 hr drug) was 149%. For the same compound, the “Survivin % change of positive cells” value (NCI-H460 cells; 24 hr drug) was −18%, the “yH2AX % change in MFI” value (NCI-H460 cells; 24 hr drug) was 1% and the “yH2AX % change of positive cells” value (NCI-H460 cells; 24 hr drug) was 235%. For the same compound, the “ATM % change in MFI” value (NCI-H460 cells; 24 hr drug + 6 hr without drug) was 329%, the “ATM % change of positive cells” value (NCI-H460 cells; 24 hr drug + 6 hr without drug) was 88% and the “BRCA1 % change in MFI” value (NCI-H460 cells; 24 hr drug + 6 hr without drug) was −10%. For the same compound, the “BRCA1 % change of positive cells” value (NCI-H460 cells; 24 hr drug + 6 hr without drug) was −52%, the “BRCA2 % change in MFI” value (NCI-H460 cells; 24 hr drug + 6 hr without drug) was −16% and the “BRCA2 % change of positive cells” value (NCI-H460 cells; 24 hr drug + 6 hr without drug) was 8%. For the same compound, the “RAD51 % change in MFI” value (NCI-H460 cells; 24 hr drug + 6 hr without drug) was 120%, the “RAD51 % change of positive cells” value (NCI-H460 cells; 24 hr drug + 6 hr without drug) was 337% and the “Survivin % change in MFI” value (NCI-H460 cells; 24 hr drug + 6 hr without drug) was 203%. For the same compound, the “Survivin % change of positive cells” value (NCI-H460 cells; 24 hr drug + 6 hr without drug) was 4%, the “yH2AX % change in MFI” value (NCI-H460 cells; 24 hr drug + 6 hr without drug) was −7% and the “yH2AX % change of positive cells” value (NCI-H460 cells; 24 hr drug + 6 hr without drug) was 919%. For the same compound, the “ATM % change in MFI” value (NCI-H460 cells; [1]) was 41%, the “ATM % change of positive cells” value (NCI-H460 cells; [1]) was 105% and the “BRCA1 % change in MFI” value (NCI-H460 cells; [1]) was 162%. For the same compound, the “BRCA1 % change of positive cells” value (NCI-H460 cells; [1]) was 3700%, the “BRCA2 % change in MFI” value (NCI-H460 cells; [1]) was 263% and the “BRCA2 % change of positive cells” value (NCI-H460 cells; [1]) was 261%. The “RAD51 % change in MFI” value (NCI-H460 cells; [1]) was 32%, the “RAD51 % change of positive cells” value (NCI-H460 cells; [1]) was 60% and the “Survivin % change in MFI” value (NCI-H460 cells; [1]) was 210%. The “Survivin % change of positive cells” value (NCI-H460 cells; [1]) was 85%, the “yH2AX % change in MFI” value (NCI-H460 cells; [1]) was −77% and the “yH2AX % change of positive cells” value (NCI-H460 cells; [1]) was 328%. For the same compound, the “dose response in MTT cytotoxicity assay” value (HL60; HL60, 72 hours, 0.01-10 μM) was “Good dose response”, the “dose response in MTT cytotoxicity assay” value (NCI-H460; H460, 72 hours, 0.01-10 μM) was “Good dose response” and the “γ-H2Ax High, MFI (x10^3)” value (HCT116 cells; staining panel 1) was “HCT116 (SN38), 487 x10^3”. The “RAD51 High, MFI (x10^3)” value (HCT116 cells; staining panel 2) was “HCT116 (SN38), 948 x10^3”.
“pentaerythritolyl-4-arm-(PEG-1-methylene-2 oxo-vinylamino acetate linked-irinotecan)-20K [4-arm-PEG-gly-irino-20K]” was tested, and the “objective response rate (ORR)” value (metastatic breast cancer; 145 mg/m^2 IV, every 14 days or every 21 days) was 28.6%, the “Overall Survival (OS)” value (metastatic breast cancer; Total) was 10.3 months and the “Progression Free Survival (PFS)” value (metastatic breast cancer; Total) was 4.6 months. The “Overall best CA27.29 response (50% or better decline in at least one observation from baseline)” value (metastatic breast cancer; Total, 16/45) was 36% (16/45), the “Overall Response Rate (ORR)” value (metastatic breast cancer; Total, N = 66) was 29% (N = 66) and the “Overall Survival (OS)” value (metastatic breast cancer; q21d) was “(13.1 months in q21d)”. The “Progression Free Survival (PFS)” value (metastatic breast cancer; q21d) was “(5.3 months in q21d)”.
In the case of `Nc1ccn([C@@H]2O[C@H](CO)[C@@H](O)C2(F)F)c(=O)n1` [Gemcitabine, gemcitabine], the “ATM % change in MFI” value (NCI-H460 cells; 24 hr drug) is reported as 125%, the “ATM % change of positive cells” value (NCI-H460 cells; 24 hr drug) is reported as −28% and the “BRCA1 % change in MFI” value (NCI-H460 cells; 24 hr drug) is reported as −3%. For the same compound, the “BRCA1 % change of positive cells” value (NCI-H460 cells; 24 hr drug) was 162%, the “BRCA2 % change in MFI” value (NCI-H460 cells; 24 hr drug) was −43% and the “BRCA2 % change of positive cells” value (NCI-H460 cells; 24 hr drug) was 130%. For the same compound, the “RAD51 % change in MFI” value (NCI-H460 cells; 24 hr drug) was 7%, the “RAD51 % change of positive cells” value (NCI-H460 cells; 24 hr drug) was 62% and the “Survivin % change in MFI” value (NCI-H460 cells; 24 hr drug) was −32%. For the same compound, the “Survivin % change of positive cells” value (NCI-H460 cells; 24 hr drug) was −32%, the “yH2AX % change in MFI” value (NCI-H460 cells; 24 hr drug) was 3% and the “yH2AX % change of positive cells” value (NCI-H460 cells; 24 hr drug) was 204%. For the same compound, the “ATM % change in MFI” value (NCI-H460 cells; 24 hr drug + 6 hr without drug) was 438%, the “ATM % change of positive cells” value (NCI-H460 cells; 24 hr drug + 6 hr without drug) was 80% and the “BRCA1 % change in MFI” value (NCI-H460 cells; 24 hr drug + 6 hr without drug) was 18%. For the same compound, the “BRCA1 % change of positive cells” value (NCI-H460 cells; 24 hr drug + 6 hr without drug) was −54%, the “BRCA2 % change in MFI” value (NCI-H460 cells; 24 hr drug + 6 hr without drug) was −28% and the “BRCA2 % change of positive cells” value (NCI-H460 cells; 24 hr drug + 6 hr without drug) was 6%. The “RAD51 % change in MFI” value (NCI-H460 cells; 24 hr drug + 6 hr without drug) was 127%, the “RAD51 % change of positive cells” value (NCI-H460 cells; 24 hr drug + 6 hr without drug) was 613% and the “Survivin % change in MFI” value (NCI-H460 cells; 24 hr drug + 6 hr without drug) was 223%. For the same compound, the “Survivin % change of positive cells” value (NCI-H460 cells; 24 hr drug + 6 hr without drug) was 1%, the “yH2AX % change in MFI” value (NCI-H460 cells; 24 hr drug + 6 hr without drug) was 40% and the “yH2AX % change of positive cells” value (NCI-H460 cells; 24 hr drug + 6 hr without drug) was 1235%. For the same compound, the “ATM % change in MFI” value (NCI-H460 cells; [1]) was 151%, the “ATM % change of positive cells” value (NCI-H460 cells; [1]) was 40% and the “BRCA1 % change in MFI” value (NCI-H460 cells; [1]) was 206%. The “BRCA1 % change of positive cells” value (NCI-H460 cells; [1]) was 3750%, the “BRCA2 % change in MFI” value (NCI-H460 cells; [1]) was 296% and the “BRCA2 % change of positive cells” value (NCI-H460 cells; [1]) was 167%. For the same compound, the “RAD51 % change in MFI” value (NCI-H460 cells; [1]) was 23%, the “RAD51 % change of positive cells” value (NCI-H460 cells; [1]) was 260% and the “Survivin % change in MFI” value (NCI-H460 cells; [1]) was 457%. The “Survivin % change of positive cells” value (NCI-H460 cells; [1]) was −14%, the “yH2AX % change in MFI” value (NCI-H460 cells; [1]) was 288% and the “yH2AX % change of positive cells” value (NCI-H460 cells; [1]) was 1834%. For the same compound, the “dose response in MTT cytotoxicity assay” value (HL60) was “Good dose response” and the “dose response in MTT cytotoxicity assay” value (NCI-H460) was “Good dose response”.
